Laboratory results from patent US20090253771A1, “INHIBITION OF GLIOTOXIN” (priority 2006, published 2009).
Where a SMILES comes first, the peptide text is derived from it. The star is where a group is joined. Cbz = O=C(OCc1ccccc1)*; CH2F = FC*

Legend:
[1] = biological target: T1, Bak (Mus musculus, UniProt O08734); experiment: Conformational change of Bak (FACS, N-terminus-specific antibody); type: cell-based; conditions: 4 h; for effect on GT-induced N-terminal opening of Bak: 100 μM Z-VAD.fmk or 15 mM NAC or MnTBAP
T1 construct: endogenous in cells; host or cells: SV40-transformed mouse embryonic fibroblasts (wt, Bid-/-; Bak-/-xBax-/- as negative control)
T1 sequence (O08734 1-209): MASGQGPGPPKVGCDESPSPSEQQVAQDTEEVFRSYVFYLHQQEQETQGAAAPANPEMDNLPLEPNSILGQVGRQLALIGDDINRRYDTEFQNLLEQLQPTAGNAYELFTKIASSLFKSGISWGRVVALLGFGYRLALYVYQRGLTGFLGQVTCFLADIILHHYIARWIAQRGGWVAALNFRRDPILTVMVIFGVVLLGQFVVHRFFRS
Procedure: (§1) MEFs were fixed in 4% PFA, permeabilized with 0.1% saponin in PBS/5% fetal calf serum (FCS) and incubated with 2 μg/ml rabbit polyclonal anti-Bak (NT, Upstate Biotechnology) 5 μg/ml rabbit polyclonal anti-Bax (NT, Upstate Biotechnology) or 5 μg/ml rabbit purified IgG (control). After two washes with 0.1% saponin in PBS, the cells were incubated with anti rabbit-FITC antibody in 0.1% saponin/PBS/5% FCS, washed twice in 0.1% saponin/PBS, resuspended in 1% PFA/PBS and analysed by FACS with a FACScan (BD) and CellQuest® software.

[2] = system: Bax; experiment: Conformational change of Bax (FACS, N-terminus-specific antibody); type: cell-based, mouse; conditions: staurosporine 1 and 5 μM, 4 h, MEFs
Procedure: as §1

[3] = system: mouse embryonic fibroblasts (MEFs); experiment: Mitochondrial membrane potential (DiOC6(3)) and ROS generation (2-HE) by FACS; type: cell-based; conditions: 1 μM GT, 4 h; for effect on GT-induced ROS production: 15 mM scavenger
Procedure: (§2) Gliotoxin (GT) was purified from Penicillium terlikowskii as described [Waring, 1988]. For apoptosis induction, 4×10^5 MEFs were incubated with different concentrations of GT or staurosporine (Sigma) for 4 h and apoptosis assays were performed as described below. In some cases the general caspase inhibitor Ac-ZVAD-fmk (Bachem) or the ROS scavengers N-acetylcysteine (NAC) (Sigma) or MnTBAP (Calbiochem) were added as described [Pardo, 2004]. To test the inhibitory potency of Ac-ZVAD-.fmk, MBL-2. Fas cells were incubated with anti-Fas mAb Jo-2 (1 μg/ml) for 24 h in the presence or absence of 100 μM of the caspase inhibitor and cell death was analysed by trypan blue exclusion. Nuclei were stained with 10 μg/ml of Hoechst 33342 (Molecular Probes).
(§3) Phosphatidylserine (PS) exposure and propidium iodide (PI) uptake was analysed by FACS or fluorescence microscopy as described [Pardo, 2004] using the annexin V-FITC kit from BD Pharmingen. The mitochondrial membrane potential was measured with the fluorescent probe 3,3′-dihexyloxacarbocyanine iodide (DiOC6(3), Molecular Probes) and ROS generation with 2-hydroxiethidine (2-HE, Molecular Probes) as described [Pardo, 2004].

[4] = system: mouse embryonic fibroblasts (MEFs); experiment: Nuclear translocation of AIF (confocal microscopy); type: cell-based; conditions: 1 μM GT, 4 h
Procedure: (§4) Cytochrome c release was quantified by FACS analysis as recently described [Waterhouse, 2003]. Briefly, 1×10^6 of MEFs were mildly permeabilized with 25 μg/ml digitonin plus 100 mM KCl on ice for 5 min. This lead to the cellular loss of cytosolic cytochrome c. Cells were washed once with cold PBS, fixed in 4% PFA, permeabilized with 0.05% saponin and 3% BSA and then incubated with the anti-cytochrome c mAb 6H2.B4 (BD Pharmingen) or mouse IgG isotype control (Jackson) followed by anti-mouse-FITC secondary antibody (Jackson). The cells were resuspended in 100 μl PFA in PBS and analysed by FACS with a FACScan (BD) and CellQuest® software. For the analysis of the nuclear translocation of AIF, cells were fixed, mounted on poly-L-lysine coverslides and stained with a rabbit polyclonal antiAIF antibody (Sigma) as described [Pardo, 2001]. Afterwards the cells were analysed by confocal microscopy using a Leica SP2 confocal microscope and Imaris® software.

[5] = system: mouse embryonic fibroblasts (MEFs); experiment: Cell death (trypan blue exclusion) and cell detachment by microscopic inspection; type: cell-based
Procedure: as §2

[6] = system: mouse embryonic fibroblasts (MEFs); experiment: Cytochrome c release on cells (FACS); type: cell-based; conditions: 1 μM GT, 4 h
Procedure: as §4

[7] = system: mouse embryonic fibroblasts (MEFs); experiment: Gliotoxin-induced apoptosis in MEFs: nuclear fragmentation (Hoechst 33342), PS exposure (annexin V-FITC) and PI uptake; type: cell-based; conditions: 1 μM GT, 4 h
Procedure: as §2, §3

[8] = system: caspase-3; experiment: Caspase-3 activation (FACS, antibody against the active form); type: cell-based, mouse; conditions: 1 μM GT, 4 h; wt and Bax−/− MEFs
Procedure: Cells were fixed with 4% paraformaldehyde (PFA) and incubated with a monoclonal antibody against the active form of caspase-3 (clone C92605, BD Pharmingen). Following incubation with a FITC-labeled secondary antibody, the cells were analyzed by FACS as described [Pardo, 2004].

[9] = system: mitochondria isolated from MEFs or FDMs; experiment: Cytochrome c release from isolated mitochondria; type: biochemical, mouse
Procedure: 8×10^7 MEFs or FDMs were centrifuged and washed once in PBS. The cell pellets were resuspended in 500 μl MSH-Buffer (210 mM mannitol; 70 mM sucrose; 20 mM HEPES; 1 mM EDTA; pH 7,5; 100 μM PMSF; 400 ng/ml pepstatin; 10 μg/ml leupeptin; 10 μg/ml aprotinin and 5 μg/ml cytochalasin B). The resuspended cell pellet was incubated on ice for 15 min before the cells were broken by passaging 25 times through a 23-gauge needle. The lysate was centrifuged at 500×g for 5 min to remove cell debris and nuclei. A crude mitochondrial pellet was then obtained by centrifugation at 10,000×g for 15 min and resuspended in MSH-Buffer. The isolated mitochondria were incubated with different concentrations of GT (10 μM, 20 μM and 50 μM), or 40 nM of recombinant tBid as a positive control at 37° C. for 4 hr. Following incubation, the mitochondria were pelleted, and both, pellet and supernatant were tested for cytochrome c release by SDS-PAGE.

[10] = system: Fas-negative cells; experiment: GT-induced pro-apoptotic processes in Fas-negative cells (cell adhesion / cell death, neutral red); type: cell-based
Procedure: This pro-apoptotic activity may be inhibited by GT-inhibitors, e.g. anti-GT-antibodies. The degree of cell adhesion and/or cell death may be determined by standard methods. For example, the cells may be labelled with a suitable dye, e.g. neutral red, allowed to adhere and incubated subsequently with GT in the presence of a test compound. After an appropriate incubation time, the non-adherent cells may be removed and the remaining adherent cells and/or the removed cells may be determined. For example, the dye neutral red may be released from cells by […]/ethanol. Non-adherent cells equating with cell death may be quantitatively determined, e.g. with an optical detection method, preferably by measuring the absorbance at 540 nm according to standard methods, e.g. in a microplate reader.
Screening for antifungal agents capable of inhibiting the interaction between GT and Bak can be performed by means of the methylcholanthrene-induced cell line MC.Fas^−/− (date of deposition at DSMZ: 4 May 2006) stained with the vital dye Neutral Red. […] Cell loss equates with cell death resulting from GT-induced pro-apoptotic processes, and is quantified automatically by loss of absorbance at 540 nm using a microplate reader.

[11] = system: MBL-2.Fas cells; experiment: Anti-Fas mAb Jo-2 induced cell death (trypan blue exclusion), test of the caspase inhibitor; type: cell-based; conditions: 1 μg/ml Jo-2, 24 h; 100 μM inhibitor
Procedure: as §2

[12] = 10, 20 or 50 μM GT, 4 h, 37° C.

Compound: CN[C@@H]1C[C@H]2O[C@@](C)([C@@H]1OC)n1c3ccccc3c3c4c(c5c6ccccc6n2c5c31)C(=O)NC4 [staurosporine]
- activation of Bak ([1]; staurosporine 1 and 5 μM, MEFs): activates both Bax and Bak
- N-terminal conformational change of Bax [2]: led to the expected N-terminal opening of Bax

Compound: O=C(O)c1ccc(/C2=C3\C=CC(=N3)/C(c3ccc(C(=O)O)cc3)=c3/cc/c4[n]3[Mn]([Cl])[n]3c2ccc3/C(c2ccc(C(=O)O)cc2)=C2/C=CC(=N2)\C=4c2ccc(C(=O)O)cc2)cc1 [MnTBAP, Mn(III) tetrakis(4-benzoic acid)porphirin chloride]
- effect on GT-induced N-terminal opening of Bak ([1]; wt MEFs, 1 μM GT): unaffected
- effect on GT-induced ROS production ([3]; wt MEFs): significantly reduced

Compound: CN1C(=O)[C@]23CC4=CC=C[C@H](O)[C@H]4N2C(=O)[C@@]1(CO)SS3 [GT, Gliotoxin]
- localization of AIF ([4]; Bak−/− and Bak−/−×Bax−/− MEFs): retained most of the AIF in the mitochondria
- cells with cytosolic localization and nuclear translocation of AIF ([4]; wt and Bax−/− MEFs): a high portion
- GT-mediated cell death (trypan blue exclusion) ([5]; increasing amounts of GT, 4 h, Bak−/− and Bak−/−×Bax−/− MEFs, not wt or Bax−/−): significantly reduced
- GT-induced loss of cell adherence ([5]; increasing amounts of GT, 4 h, Bax- and/or Bak-deficient MEFs vs wt): only marginally, if at all, diminished
- mitochondrial cytochrome c ([6]; Bak−/− or Bak−/−×Bax−/− MEFs): retained
- mitochondrial cytochrome c ([6]; wt and Bax−/− MEFs): reduced
- N-terminal epitope exposure (conformational change) of Bak ([1]; 1 μM GT, wt MEFs): readily induce N-terminal epitope exposure in Bak
- apoptotic cells (PS exposed, annexin-V staining, without plasma membrane disruption) ([7]; wt MEFs): ~50%
- nuclear fragmentation ([7]; wt MEFs, Hoechst 33342): nuclear fragmentation in the majority
- number of annexin-V/PI positive cells vs mock treated cells ([7]; Bak−/− and Bak−/−×Bax−/− MEFs): did not
- number of annexin-V/PI positive cells vs mock treated cells ([7]; wt, Bak−/− (so in the source) and Bid−/− MEFs): significantly increased
- caspase-3 activation [8]: significantly activated
- cytochrome c release from isolated mitochondria [9, 12]: dose-dependent manner
- cytochrome c release from isolated mitochondria compared with 40 nM recombinant tBid [9, 12]: as efficient as that induced by recombinant tBid
- cytochrome c release from isolated mitochondria ([9]; mitochondria from Bak−/− or Bak−/−×Bax−/− MEFs or FDMs): absent
- ROS production ([3]; wt, Bax−/− and Bid−/− MEFs): parallel increase
- mitochondrial membrane potential (Δψm) ([3]; wt, Bax−/− and Bid−/− MEFs): significant reduction
- induction of pro-apoptotic processes resulting in loss of cell adhesion and cell death [10]: dose-dependent manner

Compound: COC(=O)C[C@H](NC(=O)[C@H](C)NC(=O)[C@@H](NC(=O)OCc1ccccc1)C(C)C)C(=O)CF [Z-VAD.fmk] (Cbz-Val-Ala-Asp(OMe)-CH2F)
- effect on GT-induced AIF release ([4]; wt MEFs, 100 μM Z-VAD): not blocked
- effect on GT-induced cell death ([5]; wt MEFs, GT 4 h, Z-VAD.fmk): reduced
- effect on GT-induced cytochrome c release ([6]; wt MEFs, 100 μM Z-VAD): not blocked
- effect on apoptosis induced by the anti-Fas antibody Jo-2 [11]: blocked
- effect on GT-induced N-terminal opening of Bak ([1]; wt MEFs, 1 μM GT): unaffected
- effect on GT-induced annexin-V/PI staining ([7]; wt MEFs, 100 μM Z-VAD.fmk): reduced
- effect on loss of the mitochondrial Δψm in GT-treated cells ([3]; wt MEFs, 100 μM Z-VAD.fmk): did not prevent

Compound: CC(=O)N[C@@H](CS)C(=O)O [NAC, N-acetylcysteine]
- effect on GT-induced AIF release from mitochondria ([4]; wt MEFs, 15 mM NAC): greatly diminished
- effect on GT-induced cell death (trypan blue staining) ([5]; wt MEFs, 1 μM GT, 4 h, NAC): totally inhibited
- effect on GT-induced cell detachment ([5]; wt MEFs, 1 μM GT, 4 h, NAC): totally inhibited
- effect on GT-induced cytochrome c release from mitochondria ([6]; wt MEFs, 15 mM NAC): greatly diminished
- effect on GT-induced N-terminal opening of Bak ([1]; wt MEFs, 1 μM GT): unaffected
- effect on GT-induced PS exposure and plasma membrane permeability ([7]; wt MEFs, 15 mM NAC): abrogated
- effect on GT-induced reduction of the mitochondrial Δψm ([3]; wt MEFs, 15 mM NAC): abrogated
- effect on GT-induced ROS production ([3]; wt MEFs): significantly reduced
